Consider two molecules from patent US6583179B2, “Substituted aminoalkylamide derivatives as antagonists of follicle stimulating hormone” (Ortho-McNeil Pharmaceutical, Inc., priority 1999, dated 2003).

SMILES strings stand for the structures.

The test system of one experiment is Rat Granulosa Cell. Kind of experiment: Rat granulosa cell FSH-stimulated cAMP production. In kind it is cell-based. To be noted: inhibition of cAMP produced by EC70 dose of FSH (1.4 nM), maximum concentration 50 μM. Here is the method:
Insulin, diethylstilbesterol, androstenedione, forskolin and DMSO were purchased from Sigma (St. Louis, Mo.). Fungizone, penicillin/streptomycin, charcoal-treated heat inactivated fetal bovine serum (CT-HI-FBS) and Dulbecco's Modified Eagle Medium:Hams F12 medium containing 15 mM Hepes and L-glutamine (DMEM:F12), were purchased from GIBCO BRL (Grand Island, N.Y.).
Ovine FSH (NIADDK-oFSH-17; FSH potency=20 NIH-FSH-S1 U/mg; LH contamination=0.04 times NIH-LH-S1) was received from Ogden Bioservices Corporation, Rockville, Md. Human FSH (Fertinex), was purchased from Serono Pharmaceutical (Framingham, Mass.). Human chorionic gonadotropin (hCG) was purchased from Sigma (St Louis, Mo.).
Immature intact female rats (Wistar-derived strain; 21-23 days old) were implanted with a single pellet (Innovative Research of America, Sarasota, Fla.) containing 2.5 mg diethylstilbesterol (DES) for 3 days. On the third day, the animals were sacrificed, the ovaries were removed, and the granulosa cells were isolated essentially as described in Haynes-Johnson et al., Biol. Reprod., 61 (1), 147-153, (1999). Granulosa cells were plated at a density of 300,000 cells per ml with 0.2 ml added to each well of 96 well culture dishes (Corning, N.Y.). Cultures were incubated at 37° C. in a humidified incubator (95% air, 5% CO2) overnight (18 hours).
Androstenedione (100,000X) was prepared by dissolving the steroid in 100% ethanol, and was subsequently diluted to a final concentration of 10^−7M containing 0.1% ethanol in assay media. The assay media was serum-free, DES-free, insulin-free media, prepared by adding 5 mL pen-strep,1.5 mL fungizone and 5 μL androstenedione to 493.5 mL DMEM F-12 media.
Test compounds were solubilized in 30% dimethyl sulfoxide (DMSO) at a concentration of 10 mM before diluting to appropriate concentrations in assay medium. The final DMSO concentration in the treated cells and in the control cells was 0.75%.
Test plates containing the granulosa cells were preincubated for 18 hours at 37° C. with 95% air, 5% CO2, 100% humidity. The spent media was removed and 50 μl assay media (DMEM:F12) containing 2 mM IBMX (3-isobutyl-1-methyl-xanthine) was added to the cells. Compounds (25 μl) in the appropriate concentration were added followed 5 minutes later by an EC70 dose of FSH (25 μl; 50 ng/ml; 1.4 nM). After 30 minutes @ 22.5° C. (room temperature) the reaction was terminated by addition of 25 μL 0.5 N hydrochloric acid to each well. The amount of cAMP produced was measured by radioimmunoassay in a FlashPlate (DuPont, Boston, Mass.). To each flash plate 60 μL flash plate buffer was added followed by 40 μL acidified cell sample or cAMP standard, followed with the addition of 100 μl ^125l-cAMP trace. The FlashPlates were sealed, incubated overnight @ room temperature, and counted in a Packard TopCount (Packard Instrument Co., Meriden, Conn.). The cAMP radioimmunoassay results were calculated using DPM conversion and log-logit transformation of % binding (Excel program).
(In general: cAMP levels reflect the balance of adenylyl cyclase and phosphodiesterase activity.)

Experiment [1] has as its system mature cycling female Wistar rats. Kind of experiment: Interruption of 4-day estrus cycle. It is filed as in vivo, rat. To be noted: 20 mg/kg BID oral through 2 estrus cycles; for Estradiol Concentration / Progesterone Concentration: blood on morning of estrus; for # Ovulated Eggs: eggs in the oviduct. Here is the method:
The estrus cycles of mature cycling female Wistar rats (250 g) were monitored for 2 consecutive estrus cycles to select animals with regular 4-day estrus cycles. The animals were randomly assigned to treatment groups on the morning of estrus. Starting on the morning of estrus and continuing through 2 estrus cycles, the animals orally dosed with vehicle or test compound at a concentration of 20 mg/kg; BID. At the end of the second estrus cycle, blood samples were collected by orbital puncture on the morning of estrus. The animals were then sacrificed, and the number of ovulated eggs in the oviduct were counted.

The test system of experiment [2] is immature male Wistar rats. In words: Effects on spermatogenesis in immature male rats. It is filed as in vivo, rat. As to conditions: 20 mg/kg BID for 25 days; for Serum Testosterone (t = 3 hr, d = 25): 3 hr after dosing; for Mating Sperm: animals with sperm / animals. Here is the method:
Twenty-one day old immature male Wistar rats (Charles River) were treated with FSH antagonist at a concentration of 20 mg/kg BID for 25 days. On the penultimate day of treatment, blood samples were collected by orbital puncture immediately prior to oral dosing, and 3 hours after dosing into Vacutainers containing EDTA. On the last day of treatment, blood samples were again collected prior to time of compound administration. The concentrations of LH, FSH and testosterone were measured in the plasma. Testosterone was measured using a Coat-A-Count kit (Diagnostic Products Corp.) and luteinizing hormone and follicle stimulating hormone concentrations were measured following previously established. At the end of the treatment period, the animals were sacrificed, testes and prostates were collected and weighed, and the testes were prepared for histological examination. The presence of sperm in testes were evaluated by hematoxylin and eosin staining, and in separate slides with a BERG stain (REF, 1963).

By EC50 is commonly meant the concentration needed to bring the measured effect to its halfway point. Low values mean greater potency, high ones weaker potency. On to `C[C@@H](CN(CC(=O)NCc1ccc(CN)cc1)S(=O)(=O)c1ccc(-c2ccccc2Cl)cc1)c1ccccc1` [Compound 198], for which the EC50 in the experiment with Rat Granulosa Cell was 20 nM. For the same molecule, in experiment [1], the “Estradiol Concentration” value is on record as 20.1 ± 4.4, the “Progesterone Concentration” value is listed as 3.6 ± 0.9 and the “# Ovulated Eggs” value worked out at 14.0. In experiment [2], the “Prostate Weight” value is on record as 1.6 ± 0.2; the “Testes Weight” value is given as 8.8 ± 0.2; the “Serum Testosterone (t = 3 hr, d = 25)” value came out at 3.6 ± 0.6; the “Mating Sperm” value was 3/4.
For `Cc1ccccc1-c1ccc(S(=O)(=O)N(CC(=O)NCc2ccc(CN)cc2)C[C@@H](C)c2ccccc2)cc1` [Compound 215], in the experiment on Rat Granulosa Cell, the EC50 turned out to be 10 nM. Besides, in experiment [1], the “Estradiol Concentration” value worked out at 22.2 ± 4.2, the “Progesterone Concentration” value is reported as 2.6 ± 0.6 and the “# Ovulated Eggs” value is reported as 16.3. In experiment [2], the “Prostate Weight” value was 1.8 ± 0.1; the “Testes Weight” value amounted to 8.7 ± 0.5; the “Serum Testosterone (t = 3 hr, d = 25)” value is 4.9 ± 0.7; the “Mating Sperm” value is recorded as 1/4.
